From patent publication US10111890B2, “9-aminomethyl minocycline compounds and uses thereof” (Paratek Pharmaceuticals, Inc., priority 2016, dated 2018)

Experiments:
[1] = Phase 3 oral omadacycline vs oral linezolid in ABSSSI: safety (adverse events, TEAEs, vital signs, ECG, laboratory); assay type: in vivo; details: safety population
Text: An Adverse Event (AE) is any untoward, undesired, or unplanned event in the form of signs, symptoms, disease, or laboratory or physiologic observations occurring in a person given a test article or in a clinical study. […] An AE includes, but is not limited to, the following: any clinically significant worsening of a preexisting condition; an AE occurring from overdose of a test article, whether accidental or intentional; overdose is a dose greater than that specified in the protocol; an AE occurring from abuse (e.g., use for nonclinical reasons) of a test article; and an AE that has been associated with the discontinuation of the use of a test article.
The severity (or intensity) of an AE was classified using the following criteria:
Concerning relatedness, causality (i.e., whether there was a reasonable possibility that test article caused the event) for all AEs and SAEs was assessed.
Safety variables include the incidence rate of AEs, change in vital signs, ECG parameters and laboratory test results obtained during the course of the study. For safety analyses, subjects were analyzed according to the treatment actually received.
Summary tables were provided for all treatment-emergent adverse events (TEAEs). A TEAE is defined as an AE with a start date and time on or after the first dose of test article. […] Additional tabulations provide summaries by SOC and PT of subjects experiencing SAEs, severe TEAEs, TEAEs judged to be related to test article, TEAEs leading to discontinuation of test article, and TEAEs of special interest.
The following variables were analyzed descriptively: Vital signs (systolic and diastolic BP, pulse rate, body temperature, respiratory rate), including change from Screening by visit; Clinically notable vital signs (meeting predefined criteria as specified in the SAP) by visit. Subjects with notable vital signs data were listed.
ECG data (RR interval, PR interval, QRS interval, QTc, QTc Bazett's Correction Formula [QTcB], and QTc Fridericia's Correction Formula [QTcF]) was summarized descriptively at each scheduled evaluation, and for the overall worst post-Screening value. Changes from Screening at each visit that a 12-lead ECG was obtained was also provided. An outlier analysis was conducted based on the worst post-Screening value.
The following variables were analyzed descriptively: Laboratory variables by visit; Change from Screening of laboratory variables by visit; and Clinically notable laboratory values (meeting predefined criteria specified in the SAP) by visit.

[2] = test system: ABSSSI; assay: Earlier Phase 3 i.v.-to-oral omadacycline vs linezolid study in ABSSSI: clinical success; assay type: in vivo, human; details: i.v. with switch to oral
[3] = human, in vivo

CC(=O)NCC1CN(c2ccc(N3CCOCC3)c(F)c2)C(=O)O1 (centres unmarked) [Linezolid, N-[[3-(3-fluoro-4-morpholinophenyl)-2-oxooxazolidin-5-yl]methyl]acetamide, reference compound]
Subjects with at Least One Serious TEAEs leading to premature discontinuation of test article [1]: 2 (0.5) n (%) | Subjects with at Least One Severe TEAE [1]: 7 (1.9) n (%) | Subjects with at Least One TEAE Leading to Study Drug Discontinuation [1]: 3 (0.8) n (%) | Subjects with at Least One TEAE leading to dose interruption [1]: 0 n (%) | Subjects with at Least One TEAE leading to premature discontinuation of study [1]: 1 (0.3) n (%) | Subjects with at Least One TEAE leading to premature discontinuation of test article [1]: 3 (0.8) n (%) | TEAE leading to study drug discontinuation: Cellulitis [1]: 0 n (%) | TEAE leading to study drug discontinuation: Gastrointestinal Disorders (SOC) [1]: 0 n (%) | TEAE leading to study drug discontinuation: Haematemesis [1]: 0 n (%) | TEAE leading to study drug discontinuation: Infections And Infestations (SOC) [1]: 1 (0.3) n (%) | TEAE leading to study drug discontinuation: Nausea [1]: 0 n (%) | TEAE leading to study drug discontinuation: Pregnancy [1]: 0 n (%) | TEAE leading to study drug discontinuation: Pregnancy, Puerperium And Perinatal Conditions (SOC) [1]: 0 n (%) | TEAE leading to study drug discontinuation: Staphylococcal Bacteraemia [1]: 0 n (%) | TEAE leading to study drug discontinuation: Subcutaneous Abscess [1]: 0 n (%) | TEAE leading to study drug discontinuation: Vomiting [1]: 0 n (%) | TEAE leading to study drug discontinuation: Wound Infection [1]: 1 (0.3) n (%) | TEAE: Alanine Aminotransferase Increased [1]: 11 (3.0) n (%) | TEAE: Aspartate Aminotransferase Increased [1]: 12 (3.3) n (%) | TEAE: Cellulitis [1]: 9 (2.5) n (%) | TEAE: Headache [1]: 8 (2.2) n (%) | TEAE: Wound Infection [1]: 17 (4.6) n (%) | Total Number of AEs [1]: 250 | Total Number of TEAEs [1]: 239 | Subjects with at Least One TEAE ([1]; AE overview): 137 (37.3) n (%) | TEAE: Abdominal Pain Upper ([1]; all severities): 4 (1.1) n (%) | TEAE: Diarrhea ([1]; all severities): 10 (2.7) n (%) | TEAE: Nausea ([1]; all severities): 28 (7.6) n (%) | TEAE: Vomiting ([1]; all severities): 11 (3.0) n (%) | Subjects with at Least One TEAE, Mild ([1]; highest severity Mild): 85 (23.2) n (%) | TEAE: Abdominal Pain Upper, Mild ([1]; highest severity Mild): 4 (1.1) n (%) | TEAE: Abdominal Pain, Mild ([1]; highest severity Mild): 1 (0.3) n (%) | TEAE: Diarrhea, Mild ([1]; highest severity Mild): 9 (2.5) n (%) | TEAE: Gastrointestinal Disorders (SOC), Mild ([1]; highest severity Mild): 44 (12.0) n (%) | TEAE: Nausea, Mild ([1]; highest severity Mild): 24 (6.5) n (%) | TEAE: Vomiting, Mild ([1]; highest severity Mild): 10 (2.7) n (%) | Subjects with at Least One TEAE, Moderate ([1]; highest severity Moderate): 45 (12.3) n (%) | TEAE: Abdominal Pain Upper, Moderate ([1]; highest severity Moderate): 0 n (%) | TEAE: Abdominal Pain, Moderate ([1]; highest severity Moderate): 1 (0.3) n (%) | TEAE: Diarrhea, Moderate ([1]; highest severity Moderate): 1 (0.3) n (%) | TEAE: Gastrointestinal Disorders (SOC), Moderate ([1]; highest severity Moderate): 8 (2.2) n (%) | TEAE: Nausea, Moderate ([1]; highest severity Moderate): 4 (1.1) n (%) | TEAE: Vomiting, Moderate ([1]; highest severity Moderate): 1 (0.3) n (%) | Subjects with at Least One TEAE, Severe ([1]; highest severity Severe): 7 (1.9) n (%) | TEAE: Abdominal Pain Upper, Severe ([1]; highest severity Severe): 0 n (%) | TEAE: Abdominal Pain, Severe ([1]; highest severity Severe): 0 n (%) | TEAE: Diarrhea, Severe ([1]; highest severity Severe): 0 n (%) | TEAE: Gastrointestinal Disorders (SOC), Severe ([1]; highest severity Severe): 0 n (%) | TEAE: Nausea, Severe ([1]; highest severity Severe): 0 n (%) | TEAE: Vomiting, Severe ([1]; highest severity Severe): 0 n (%) | Subjects with at Least One TEAE ([1]; most frequent (≥2%) TEAEs table): 137 (37.3) n (%) | clinical success based on investigator's assessment of clinical response ([2]; 7-14 days after the last dose): 83.6% | clinical success based on a reduction of lesion size ([2]; 48-72 hours after the first dose, FDA primary analysis population (N=627)): 85.5% | discontinuation due to TEAE, % of subjects [3]: 2.2% | serious TEAEs, % of subjects [3]: 2.5% | treatment-emergent adverse events (TEAEs), % of subjects [3]: 45.7%
